Tests used:
TRPA-1 = molecular target: T1, TRPA-1 (Caenorhabditis elegans, UniProt Q18297); assay: Ca2+ flux-based channel study in C. elegans (intestinal GCaMP1.3), wild-type TRPA-1; format: in vivo; conditions: for Ca2+ flux (percentage change in peak GCaMP1.3 fluorescence intensity): wild-type TRPA-1, PA or LA (20 pM)
T1 construct: TQ3056: XuIs180[plfe2b::GCaMP1.3+plfe-2b::dsred];N2; endogenous in cells; host or cells: whole C. elegans animals, N2 background with intestinal GCaMP1.3 (strain TQ3056)
T1 sequence (Q18297 1-1211): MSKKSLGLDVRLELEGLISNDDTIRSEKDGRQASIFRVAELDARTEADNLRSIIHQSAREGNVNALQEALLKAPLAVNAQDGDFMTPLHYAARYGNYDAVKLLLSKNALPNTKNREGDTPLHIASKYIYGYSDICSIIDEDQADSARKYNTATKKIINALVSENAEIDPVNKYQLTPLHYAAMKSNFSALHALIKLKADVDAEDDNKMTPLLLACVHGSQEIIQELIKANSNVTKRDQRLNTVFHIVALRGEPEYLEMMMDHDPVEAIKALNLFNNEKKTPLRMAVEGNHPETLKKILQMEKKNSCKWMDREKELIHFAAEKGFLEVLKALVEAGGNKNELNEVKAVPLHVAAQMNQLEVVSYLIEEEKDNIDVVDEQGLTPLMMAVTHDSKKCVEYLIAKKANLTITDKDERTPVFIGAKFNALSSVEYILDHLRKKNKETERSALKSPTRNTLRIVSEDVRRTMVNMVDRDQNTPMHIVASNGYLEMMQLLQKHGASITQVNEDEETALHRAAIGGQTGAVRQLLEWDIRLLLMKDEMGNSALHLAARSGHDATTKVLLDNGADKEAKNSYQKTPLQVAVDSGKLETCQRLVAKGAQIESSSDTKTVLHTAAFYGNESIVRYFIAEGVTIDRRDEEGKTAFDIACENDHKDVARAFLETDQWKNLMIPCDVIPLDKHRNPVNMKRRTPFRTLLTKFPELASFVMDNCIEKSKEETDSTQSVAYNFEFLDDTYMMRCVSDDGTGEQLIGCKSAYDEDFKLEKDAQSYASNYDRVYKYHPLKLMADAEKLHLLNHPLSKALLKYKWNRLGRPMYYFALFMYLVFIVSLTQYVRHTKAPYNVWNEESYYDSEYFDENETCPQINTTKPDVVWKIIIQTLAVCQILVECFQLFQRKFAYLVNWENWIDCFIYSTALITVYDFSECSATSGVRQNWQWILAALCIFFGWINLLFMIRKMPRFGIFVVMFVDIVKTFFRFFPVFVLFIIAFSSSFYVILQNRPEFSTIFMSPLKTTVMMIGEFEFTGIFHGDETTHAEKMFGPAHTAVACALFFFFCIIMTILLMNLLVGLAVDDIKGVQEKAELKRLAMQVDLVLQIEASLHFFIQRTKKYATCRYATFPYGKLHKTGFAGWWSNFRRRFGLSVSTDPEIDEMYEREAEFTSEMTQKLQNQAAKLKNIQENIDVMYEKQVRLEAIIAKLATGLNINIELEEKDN
Description: (§1) Ca^2+ flux was measured using an upright Olympus compound microscope (BX51) under a 40× objective. Real time sequential G-CaMP1.3 fluorescent images were captured using Hamamatsu Ocra-ER digital CCD camera at a frame rate of 10 frames per second and for a span of 300 frames. Acquired images were analyzed for further intensity measurements using HC Image software v. 1.1.3.0 (Hamamatsu Corp., NJ). Percentage change in fluorescent peak intensity was estimated using the intensity values generated real time by the program.

C. elegans = assay: Lifespan assay (survival curves); format: in vivo, Caenorhabditis elegans; conditions: for Lifespan / early mortality (survival curves): glod-4 mutant animals, PA, LA, or UMP (20 pM) vs EtOH control
Description: Life span assays were performed in Thermo Scientific Precision incubators at 20° C. After alkaline hypochlorite treatment, synchronized L1 animals were either placed onto NGM plates seeded with 5× concentrated E. coli OP50-1 (cultured on Lysogeny Broth/LB overnight) or on RNAi plates supplemented with 20×HT1115 RNAi bacteria. Post-L4 stage of development, all lifespan assays were performed using FUdR (5-fluoro-2 deoxyuridine) plates to inhibit development and growth of progeny. Every two days, animals were transferred on to new 60 mm NGM or RNAi plates freshly seeded with OP50-1 or HT1115 bacteria (with or without drug), respectively. 90-120 animals were considered for each lifespan experiment. Animal viability was assessed visually or with gentle prodding on the head. Animals were censored in the event of internal hatching of the larvae, body rupture, or crawling of larvae from the plates.

[1] = molecular target: T2, TRPA-1^E1018A (Ca^2+ impermeable) mutant channel (Caenorhabditis elegans, UniProt Q18297, E1018A); assay: Ca2+ flux-based channel study in C. elegans (intestinal GCaMP1.3), TRPA-1^E1018A mutant channel; format: in vivo; conditions: Ca^+2-impermeable TRPA-1^E1018A channel; for Ca2+ flux (percentage change in peak GCaMP1.3 fluorescence intensity): PA or LA (20 pM)
T2 construct: expressed in transfected cells; host or cells: transgenic C. elegans (strain TQ2772), ges-1 promoter (intestine), trpa-1(ok999) background, with GCaMP1.3
T2 sequence (Q18297 whole entry E1018A): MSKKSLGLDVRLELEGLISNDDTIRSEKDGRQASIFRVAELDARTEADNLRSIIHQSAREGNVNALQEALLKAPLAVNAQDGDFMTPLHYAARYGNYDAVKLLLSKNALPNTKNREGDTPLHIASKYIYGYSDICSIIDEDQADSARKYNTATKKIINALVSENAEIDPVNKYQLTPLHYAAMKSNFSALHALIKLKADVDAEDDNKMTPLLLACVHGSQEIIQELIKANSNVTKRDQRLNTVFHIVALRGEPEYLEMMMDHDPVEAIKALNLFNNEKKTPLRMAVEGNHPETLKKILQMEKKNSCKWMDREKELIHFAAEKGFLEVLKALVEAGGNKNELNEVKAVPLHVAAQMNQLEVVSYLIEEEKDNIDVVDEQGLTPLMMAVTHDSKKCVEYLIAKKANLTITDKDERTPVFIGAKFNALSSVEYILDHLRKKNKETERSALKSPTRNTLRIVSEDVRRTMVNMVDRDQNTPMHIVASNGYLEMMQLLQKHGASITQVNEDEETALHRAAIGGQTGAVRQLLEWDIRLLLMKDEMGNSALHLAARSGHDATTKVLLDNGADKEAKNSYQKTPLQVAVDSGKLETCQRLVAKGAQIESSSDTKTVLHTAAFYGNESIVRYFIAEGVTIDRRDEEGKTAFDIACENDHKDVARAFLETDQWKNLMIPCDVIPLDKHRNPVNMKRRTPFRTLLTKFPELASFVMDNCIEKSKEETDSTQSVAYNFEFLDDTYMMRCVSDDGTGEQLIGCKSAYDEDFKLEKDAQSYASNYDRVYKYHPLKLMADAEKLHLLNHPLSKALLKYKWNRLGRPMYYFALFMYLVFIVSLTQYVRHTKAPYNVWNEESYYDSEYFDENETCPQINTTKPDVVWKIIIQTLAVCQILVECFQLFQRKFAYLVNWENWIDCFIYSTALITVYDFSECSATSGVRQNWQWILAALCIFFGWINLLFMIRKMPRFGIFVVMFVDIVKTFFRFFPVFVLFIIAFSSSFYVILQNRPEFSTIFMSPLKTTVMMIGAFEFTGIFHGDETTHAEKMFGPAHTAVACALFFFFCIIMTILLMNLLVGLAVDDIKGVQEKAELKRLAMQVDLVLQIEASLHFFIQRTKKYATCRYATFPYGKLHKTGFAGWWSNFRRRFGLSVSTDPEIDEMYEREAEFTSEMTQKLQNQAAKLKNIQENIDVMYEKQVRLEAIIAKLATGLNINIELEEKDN
Description: as §1

SKN-1/Nrf2 = assay: SKN-1 activation assay (GFP reporters for SKN-1, gst-4, gcs-1; qPCR); format: in vivo, Caenorhabditis elegans; conditions: for Expression of gst-4 (GFP foci) under trpa-1 knockdown: glod-4;gst-4p::gfp animals, PA or LA (20 pM); for SKN-1 activation (GFP foci in gst-4p::gfp): gst-4p::gfp animals on EV or glod-4 RNAi, PA, LA, or UMP (20 pM)
Description: Adult animals were examined for SKN-1/Nrf2 activation using GFP reporters for both SKN-1 and SKN-1 target genes: gst-4 and gcs-1. For exogenous MGO and drug assays, age-synchronized GFP reporter strains were subject to control and treatment conditions for a period of 4-6 hours before microscopy. For RNAi-induced activation studies, GFP reporter strains were fed on HT1115 bacteria expressing empty vector pL4440 or RNAi gene from L1 stage. Synchronized day 1 adult animals were then subjected to microscopic examination. Activation of SKN-1 using SKN-1 fusion reporter was determined as described earlier (An et al. (2003) Genes & Dev. 17: 1882-1893; Onken and Driscoll (2010) PloS One, 5: e8758). Scoring for downstream SKN-1 targets carrying GFP reporter for gcs-1 promoter was performed based on a previous study (Wang et al. (2010) PLoS Genetics, doi. org/10.1371/journal.pgen.1001048) and categorized as follows: ‘high’ for strong GFP signal throughout the intestine, ‘medium’ for GFP signal in the anterior or posterior section of the intestine and ‘low’ for weak or no signal. For animals with gst-4 promoters carrying GFP reporters number of GST-4 positive foci was counted under different conditions as described previously (Fensgardet al. (2010) Aging, 2: 133-159). Quantification of acquired images was done using the Image J™ software (//imagej.nih.gov/ij/).
Total RNA was extracted from nearly 100 age-synchronized adult animals picked and collected in 20 pl of M9 buffer using TRIzol reagent (Life Technologies, CA). Subsequently, 1 pg total RNA was used as template for cDNA synthesis. cDNA was synthesized using the ISCRIPT™ cDNA synthesis kit (Bio-Rad, CA) following manufacturer's protocol. qRT-PCR was carried out using the SensiFAST SYBR No-ROX kit (Bioline, MA) in a LightCycler 480 Real-Time PCR system (Roche Diagnostics Corp., IN). Quantification was performed using the comparative AACt method and normalization for internal reference was done using actin gene act-1.

SMILES | Ca2+ flux (percentage change in peak GCaMP1.3 fluorescence intensity) (TRPA-1) | Lifespan / early mortality (survival curves) (C. elegans) | Ca2+ flux (percentage change in peak GCaMP1.3 fluorescence intensity) [1] | Expression of gst-4 (GFP foci) under trpa-1 knockdown (SKN-1/Nrf2; trpa-1 RNAi) | SKN-1 activation (GFP foci in gst-4p::gfp) (SKN-1/Nrf2) | Ca2+ response (G-CaMP1.3 sensor) (TRPA-1; functional (wild-type) TRPA-1 channel, 7 mM MGO vs water) | Lifespan (survival curves) (C. elegans; N2 animals, 7 mM MGO vs water) | Ca2+ response (G-CaMP1.3 sensor) ([1]; 7 mM MGO) | SKN-1 nuclear localization (SKN-1::GFP) (SKN-1/Nrf2; 7 mM MGO vs water) | Expression of SKN-1 reporters gst-4 and gcs-1 on trpa-1 knockdown (SKN-1/Nrf2; MGO-treated wild-type animals, 7 mM MGO, trpa-1 RNAi) | SKN-1/Nrf2 activation (gst-4 and gcs-1, GFP reporter and RT-PCR) (SKN-1/Nrf2; exogenous MGO treatment, 7 mM vs water)
O=C(O)CCCCC1CCSS1 (stereo not shown) [LA, a-lipoic acid] | robust Ca+^2 flux | performed similar to PA | significantly reduced | significantly reduced to wild-type levels | SKN-1 activation was observed | – | – | – | – | – | –
CC(=O)C=O [MGO, methylglyoxal] | – | – | – | – | – | robust Ca^2+ response | early mortality | basal responses | undergo nuclear localization | significantly reduced | significant SKN-1/Nrf2 activation
C[C@]1(C(=O)O)CCC[C@]2(C)c3cc(O)ccc3CC[C@@H]12 [PA, podocarpic acid] | robust Ca+^2 flux | able to prevent | significantly reduced | significantly reduced to wild-type levels | activates SKN-1 | – | – | – | – | – | –
